Results on 24 compounds are retold here after patent US7786141B2 (Vertex Pharmaceuticals Incorporated, priority 2004, dated 2010).

One assay deals with T1, M1 muscarinic receptor (Homo sapiens, UniProt P11229).
T1 construct: expressed in transfected cells; host or cells: CHO (M1-CHO)
T1 sequence (P11229 1-460): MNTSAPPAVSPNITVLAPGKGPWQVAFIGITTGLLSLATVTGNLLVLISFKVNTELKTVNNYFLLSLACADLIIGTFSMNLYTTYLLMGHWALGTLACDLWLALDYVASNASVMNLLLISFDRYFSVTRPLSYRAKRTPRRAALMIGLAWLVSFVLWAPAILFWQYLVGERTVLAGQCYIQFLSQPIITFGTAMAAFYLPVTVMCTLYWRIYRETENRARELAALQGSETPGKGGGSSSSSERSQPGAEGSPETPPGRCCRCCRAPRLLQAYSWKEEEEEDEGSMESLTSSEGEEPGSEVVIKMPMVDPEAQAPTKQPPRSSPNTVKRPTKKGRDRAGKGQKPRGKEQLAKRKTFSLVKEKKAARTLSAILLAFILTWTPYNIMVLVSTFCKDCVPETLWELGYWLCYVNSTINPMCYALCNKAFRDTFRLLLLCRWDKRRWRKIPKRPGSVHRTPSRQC
Kind of assay: Functional mobilization of intracellular calcium (FLIPR) in M1-CHO cells. In kind it is cell-based. The settings on record: M1 receptor, calcium mobilization; for Emax: read-out: M1 Efficacy. A digest of the protocol: (§1)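 Measured via Fluo-3 fluorescence on a FLIPR, CHO cells with either muscarinic subtype received compound in 0.5% DMSO. Antagonism was assessed after 15 min pre-incubation followed by carbachol at each subtype's EC80; agonism from compound addition alone.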
(Calcium flux is commonly read through the fluorescence of an indicator in the cells.)

A further assay has as its target T2, M4 muscarinic receptor (Homo sapiens, UniProt P08173).
T2 construct: expressed in transfected cells; host or cells: CHO (M4-CHO)
T2 sequence (P08173 1-479): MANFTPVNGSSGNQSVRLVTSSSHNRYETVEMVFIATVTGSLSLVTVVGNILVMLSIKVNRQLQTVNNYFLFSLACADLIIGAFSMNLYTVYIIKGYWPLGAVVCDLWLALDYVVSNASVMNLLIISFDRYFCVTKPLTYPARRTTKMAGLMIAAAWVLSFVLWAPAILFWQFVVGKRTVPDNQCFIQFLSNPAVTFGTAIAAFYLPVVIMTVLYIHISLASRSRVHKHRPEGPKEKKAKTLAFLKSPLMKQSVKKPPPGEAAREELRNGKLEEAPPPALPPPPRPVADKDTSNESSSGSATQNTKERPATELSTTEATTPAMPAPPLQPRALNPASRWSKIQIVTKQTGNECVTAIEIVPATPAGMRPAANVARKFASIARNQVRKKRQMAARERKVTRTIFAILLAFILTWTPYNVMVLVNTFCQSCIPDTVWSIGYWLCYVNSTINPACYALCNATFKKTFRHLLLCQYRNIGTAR
Kind of assay: Functional mobilization of intracellular calcium (FLIPR) in M4-CHO cells. In kind it is cell-based. The settings on record: M4 receptor, calcium mobilization; for Emax: read-out: M4 Efficacy. A digest of the protocol:
as §1

Each structure is given as a SMILES string.

For `CCCC1CCC(N2CCC3(CC2)CN(C(C)=O)c2ccc(F)cc23)CC1` (stereo not drawn) [compound 131], at M1 muscarinic receptor, the “M1 Activity” value was “xxx (activity was measured to be less than 0.1 μM)” and the Emax was 65 to 85%. Moreover, on M4 muscarinic receptor, the “M4 Activity” value is “xx (activity was measured to be between 0.1 μM and 1.0 μM)”; the Emax is greater than 85%.

In the case of `COC(=O)N1CCCC(N2CCC3(CC2)CN(C(C)=O)c2ccc(F)cc23)CC1` (stereo not drawn) [compound 132], at M1 muscarinic receptor, the “M1 Activity” value is “xxx (activity was measured to be less than 0.1 μM)” and the Emax was greater than 85%. Moreover, on M4 muscarinic receptor, the “M4 Activity” value is “xxx (activity was measured to be less than 0.1 μM)” and the Emax is greater than 85%.

With `O=C(OC1CCCC1)N1C2CCC1CC(N1CCC3(CC1)COc1ccc(F)cc13)C2` (stereo not drawn) [compound 133], on M1 muscarinic receptor, the “M1 Activity” value is listed as “xxx (activity was measured to be less than 0.1 μM)” and the Emax is greater than 85%. Also, at M4 muscarinic receptor, the “M4 Activity” value is “xx (activity was measured to be between 0.1 μM and 1.0 μM)”; the Emax fell in the range of 65 to 85%.

On to `O=C(C1CCC1)N1C2CCC1CC(N1CCC3(CC1)COc1ccc(F)cc13)C2` (stereo not drawn) [compound 134], for which, on M1 muscarinic receptor, the “M1 Activity” value is given as “xxx (activity was measured to be less than 0.1 μM)” and the Emax was greater than 85%. Further, on M4 muscarinic receptor, the “M4 Activity” value is “xx (activity was measured to be between 0.1 μM and 1.0 μM)”; the Emax is less than 65%.

For `CC(=O)N1CC2(CCN(CC3CCOC3)CC2)c2cc(F)ccc21` (stereo not drawn) [compound 135], at M1 muscarinic receptor, the “M1 Activity” value was “xxx (activity was measured to be less than 0.1 μM)” and the Emax is greater than 85%. Besides, at M4 muscarinic receptor, the “M4 Activity” value is “xx (activity was measured to be between 0.1 μM and 1.0 μM)”; the Emax is greater than 85%.

As for `CCOC(=O)N1CCC(N2CCC3(CC2)CN(C(=O)C2CC2)c2ccc(F)cc23)CC1` [compound 136], at M1 muscarinic receptor, the “M1 Activity” value is “xxx (activity was measured to be less than 0.1 μM)” and the Emax is greater than 85%. Also, on M4 muscarinic receptor, the “M4 Activity” value is given as “xxx (activity was measured to be less than 0.1 μM)” and the Emax was greater than 85%.

`CCOC(=O)N1CCC(N2CCC3(CC2)CN(C(C)=O)c2ccc(CC)cc23)CC1` [compound 137]: at M1 muscarinic receptor, the “M1 Activity” value was “xxx (activity was measured to be less than 0.1 μM)” and the Emax was greater than 85%. At M4 muscarinic receptor, the “M4 Activity” value was “x (activity was measured to be greater than 1.0 μM)” and the Emax is greater than 85%.

`CC(=O)N1CC2(CCN(C3CC4CCC3C4)CC2)c2cc(C)ccc21` (stereo not drawn) [compound 138]: on M1 muscarinic receptor, the “M1 Activity” value is “xxx (activity was measured to be less than 0.1 μM)” and the Emax is 65 to 85%. Moreover, on M4 muscarinic receptor, the “M4 Activity” value is on record as “x (activity was measured to be greater than 1.0 μM)” and the Emax lay in the range of 65 to 85%.

Turning to `CC(C)OC(=O)N1C2CCC1CC(N1CCC3(CC1)C(=O)Nc1ccccc13)C2` (stereo not drawn) [compound 139], on M1 muscarinic receptor, the “M1 Activity” value is reported as “xxx (activity was measured to be less than 0.1 μM)” and the Emax was greater than 85%. Besides, on M4 muscarinic receptor, the “M4 Activity” value is listed as “xxx (activity was measured to be less than 0.1 μM)” and the Emax was greater than 85%.

With `CC(=O)N1CC2(CCN(C3CCN(C(=O)OC4CCC4)CC3)CC2)c2cc(F)ccc21` [compound 140], at M1 muscarinic receptor, the “M1 Activity” value is reported as “xxx (activity was measured to be less than 0.1 μM)” and the Emax was greater than 85%. For the same compound, at M4 muscarinic receptor, the “M4 Activity” value was “xxx (activity was measured to be less than 0.1 μM)” and the Emax is greater than 85%.

With `CCOC(=O)N1CCC(N2CCC3(CC2)CN(C(C)=O)c2ccc(Cl)cc23)CC1` [compound 141], at M1 muscarinic receptor, the “M1 Activity” value is reported as “xxx (activity was measured to be less than 0.1 μM)” and the Emax was greater than 85%. On M4 muscarinic receptor, the “M4 Activity” value was “xx (activity was measured to be between 0.1 μM and 1.0 μM)”; the Emax is greater than 85%.

As for `CCOC(=O)N1CCC(N2CCC3(CC2)CN(C(=O)C(C)C)c2ccc(F)cc23)CC1` [compound 142], on M1 muscarinic receptor, the “M1 Activity” value is recorded as “xxx (activity was measured to be less than 0.1 μM)” and the Emax was 65 to 85%. For the same compound, at M4 muscarinic receptor, the “M4 Activity” value is “x (activity was measured to be greater than 1.0 μM)” and the Emax is greater than 85%.

As to `CCOC(=O)N1CCC(N2CCC3(CC2)CN(C(=O)c2cccnc2)c2ccc(F)cc23)CC1` [compound 144], at M1 muscarinic receptor, the “M1 Activity” value is on record as “xxx (activity was measured to be less than 0.1 μM)” and the Emax was greater than 85%. Moreover, at M4 muscarinic receptor, the “M4 Activity” value was “xxx (activity was measured to be less than 0.1 μM)” and the Emax was greater than 85%.

On to `CCOC(=O)N1CCC(N2CCC3(CC2)CN(C(=O)OC(C)C)c2ccc(F)cc23)CC1` [compound 145], for which, at M1 muscarinic receptor, the “M1 Activity” value is given as “xxx (activity was measured to be less than 0.1 μM)” and the Emax is greater than 85%. Besides, on M4 muscarinic receptor, the “M4 Activity” value is given as “x (activity was measured to be greater than 1.0 μM)” and the Emax is greater than 85%.

On to `CCOC(=O)N1CCC(N2CCC3(CC2)CN(C(C)=O)c2ccc(-c4ccccc4F)cc23)CC1` [compound 146], for which, on M1 muscarinic receptor, the “M1 Activity” value is listed as “xxx (activity was measured to be less than 0.1 μM)” and the Emax is greater than 85%. Further, on M4 muscarinic receptor, the “M4 Activity” value is listed as “xxx (activity was measured to be less than 0.1 μM)” and the Emax is greater than 85%.

As for `Clc1ccc2c(c1)C1(CCN(CC3CC4C=CC3C4)CC1)CN2` (stereo not drawn) [compound 147], at M1 muscarinic receptor, the “M1 Activity” value is “xxx (activity was measured to be less than 0.1 μM)” and the Emax lay in the range of 65 to 85%. Also, on M4 muscarinic receptor, the “M4 Activity” value was “xx (activity was measured to be between 0.1 μM and 1.0 μM)”; the Emax is greater than 85%.

On to `CCOC(=O)N1C2CCC1CC(N1CCC3(CC1)C(=O)N(C)c1ccccc13)C2` (stereo not drawn) [compound 149], for which, at M1 muscarinic receptor, the “M1 Activity” value is given as “xxx (activity was measured to be less than 0.1 μM)” and the Emax is greater than 85%. Moreover, on M4 muscarinic receptor, the “M4 Activity” value is “x (activity was measured to be greater than 1.0 μM)” and the Emax was greater than 85%.

Consider `CCOC(=O)N1CCC(N2CCC3(CC2)CN(C(C)=O)c2ccc(-c4ccccc4OC)cc23)CC1` [compound 150], for which, on M1 muscarinic receptor, the “M1 Activity” value is reported as “xxx (activity was measured to be less than 0.1 μM)” and the Emax was in the range of 65 to 85%. Besides, at M4 muscarinic receptor, the “M4 Activity” value is listed as “x (activity was measured to be greater than 1.0 μM)” and the Emax is greater than 85%.

Take `CC(=O)N1CC2(CCN(C3CCN(C(=O)OC4CCC4)CC3)CC2)c2cc(C)ccc21` [compound 151]: on M1 muscarinic receptor, the “M1 Activity” value is on record as “xxx (activity was measured to be less than 0.1 μM)” and the Emax is greater than 85%. Further, at M4 muscarinic receptor, the “M4 Activity” value was “xxx (activity was measured to be less than 0.1 μM)” and the Emax was greater than 85%.

Consider `Fc1ccc2c(c1)C1(CCN(C3CCCCC3)CC1)CO2` [compound 152], for which, at M1 muscarinic receptor, the “M1 Activity” value was “xx (activity was measured to be between 0.1 μM and 1.0 μM)”; the Emax lay within 65 to 85%. In addition, on M4 muscarinic receptor, the “M4 Activity” value is on record as “x (activity was measured to be greater than 1.0 μM)” and the Emax is greater than 85%.

On to `CCOC(=O)N1C2CCC1CC(N1CCC3(CC1)CNc1ccccc13)C2` (stereo not drawn) [compound 153], for which, at M1 muscarinic receptor, the “M1 Activity” value is listed as “xxx (activity was measured to be less than 0.1 μM)” and the Emax is greater than 85%. On M4 muscarinic receptor, the “M4 Activity” value is “xxx (activity was measured to be less than 0.1 μM)” and the Emax was greater than 85%.

For the compound `COC(=O)N1CCC(N2CCC3(CC2)CN(C(=O)N(C)C)c2ccc(F)cc23)CC1` [compound 154], at M1 muscarinic receptor, the “M1 Activity” value is on record as “xxx (activity was measured to be less than 0.1 μM)” and the Emax lay within 65 to 85%. Moreover, at M4 muscarinic receptor, the “M4 Activity” value was “xxx (activity was measured to be less than 0.1 μM)” and the Emax is greater than 85%.

On to `Clc1ccc2c(c1)C1(CCN(C3CCCCC3)CC1)CN2` [compound 155], for which, on M1 muscarinic receptor, the “M1 Activity” value was “xxx (activity was measured to be less than 0.1 μM)” and the Emax is greater than 85%. For the same compound, at M4 muscarinic receptor, the “M4 Activity” value is “x (activity was measured to be greater than 1.0 μM)” and the Emax is greater than 85%.

Turning to `COC(=O)N1C2CCC1CC(N1CCC3(CC1)COc1ccc(F)cc13)C2` (stereo not drawn) [compound 156], at M1 muscarinic receptor, the “M1 Activity” value is listed as “xxx (activity was measured to be less than 0.1 μM)” and the Emax was in the range of 65 to 85%. Besides, at M4 muscarinic receptor, the “M4 Activity” value was “xxx (activity was measured to be less than 0.1 μM)” and the Emax was greater than 85%.
